Assay results published in patent EP0572271B1, “Acyl lactylates as antimicrobial actives” (UNILEVER PLC, priority 1992, dated 1993).

What was measured:
[1] = test system: Aspergillus niger & Penicillium notatum; test: Mould challenge test: mould spore suspension inoculated into preserved compositions; assay type: cell-based; settings: Example 2: oil-in-water emulsion, pH 5.5, material usually 1.0 wt%; for Mould challenge 1%: 1% by volume spore suspension; for Mould challenge 10%: 10% by volume spore suspension
Procedure: (§1) This test involved incubating under standard conditions test compositions which have been inoculated with a selected bacterium, yeast or a mixture of moulds. […] Accordingly, the higher the number of "challenges", the better is the preservative substance in preventing or at least delaying microbial spoilage.
(§2) The microorganisms selected for this test were: • i) Pseudomonas cepacia - a gram-negative bacterium, • ii ) Aspergillus niger & Penicillium notatum, - a mixture of moulds.
The above procedure applies to the inoculation of the bacterium. For testing with the mixed culture of moulds this procedure was varied slightly, as follows:
Two samples of each test composition (9.9ml and 9ml) were transferred to sterile flasks and 0.1ml or 1ml, (i.e. 1% or 10% by volume) of a mould spore suspension (approximately 10^8 spores per ml) was introduced into the respective samples and thoroughly mixed. The inoculated samples were incubated at 28°C for up to 28 days with 1ml samples being aseptically removed for the total viable count as outlines above using Sabourand's dextrose agar after 1, 7, and 28 days.
A composition is classed as "low risk" if mould spores are eliminated in 1 to 2 days. "Medium risk" compositions take 7 to 14 days to eliminate the spores and "high risk" compositions still have surviving mould spores after 14 days incubation.

Pseudomonas cepacia = test: Challenge test with repeated bacterial inoculation of preserved compositions; assay type: cell-based
Procedure: as §1, §2
For the bacterium the method of testing was as follows: • i) Introduce aseptically 99ml of test composition into a 250ml flask and add 1ml of inoculum of one of the test organisms (see above), to provide a dilution of 10^6 cells/ml in the composition. • ii) mix and incubate at 28°C for 24 hours. • iii) remove 1ml of incubated composition from the flask and add to it as diluent 9ml of an aqueous solution containing 0.1% by weight peptone and 2% by weight Tween 80, and mix thoroughly. • iv) place 1ml of diluted sample into a petri dish and add warm, molten agar (40°C) and mix to distribute culture uniformly and allow to set. • v) incubate plates for 3 days at 28°C and then count colonies and note log reduction of count (due to the presence of the preservative in the original culture composition).
The inoculation of the organisms originally introduced into each composition is then repeated at 24 hour intervals, following removal of the first total viable count sample, the plating out and counting procedure being repeated on each occasion. The test is terminated when the samples show a contamination level greater than 10^2 counts per ml on 2 consecutive days. This point is regarded as the failure point for the composition under test.
The greater the number of inoculations of contaminant organisms before this level of contamination is established in the composition, the better the preservative system.

aspergillus niger = settings: statement in words on prior art US patent 3,275,503; cited from earlier work
[2] = test system: several types of bacteria; settings: statement in words on prior art US patent 3,275,503; cited from earlier work
[3] = Example 2: oil-in-water emulsion, pH 5.5, material usually 1.0 wt%
[4] = Example 3: shampoo formulation, pH 6.0, material added 1 wt%

## CC(C)=CCCC(C)=CCCC(C)=CCO [Farnesol]
[1]
  Mould challenge 1%: ++++
  Mould challenge 10%: ++++
Pseudomonas cepacia; [3]
  No of inoculations to failure (Bacteria): 1

## CCCCCC(=O)OC(C)C(=O)O (stereo not drawn) [Hexanoyl lactylate]
[1]
  Mould challenge 1%: +
  Mould challenge 10%: +
Pseudomonas cepacia; [3]
  No of inoculations to failure (Bacteria): >21
Pseudomonas cepacia; [4]
  No of inoculations to failure (Bacteria): >21

## CCCCCCCCCCCC(=O)O [Lauric acid]
[1]
  Mould challenge 1%: ++++
  Mould challenge 10%: ++++
Pseudomonas cepacia; [3]
  No of inoculations to failure (Bacteria): 1
Pseudomonas cepacia; [4]
  No of inoculations to failure (Bacteria): 1

## CCCCCCCCCCCC(=O)OCC(O)CO (stereo not drawn) [Monolaurin]
[1]
  Mould challenge 1%: ++++
  Mould challenge 10%: ++++
Pseudomonas cepacia; [3]
  No of inoculations to failure (Bacteria): 1
Pseudomonas cepacia; [4]
  No of inoculations to failure (Bacteria): 1

## CCCCCCCCCC(=O)OC(C)C(=O)OC(C)C(=O)[O-].CCCCCCCCCC(=O)OC(C)C(=O)OC(C)C(=O)[O-].[Ca+2] (stereo not drawn) [calcium capryl-2 lactylate]
Aspergillus niger
  efficacy to inhibit the growth of moulds, like aspergillus niger: leaves much to be desired
[2]
  effectiveness against several types of bacteria: very effective

## Octanoyl lactylate
[1]
  Mould challenge 1%: +
  Mould challenge 10%: ++++
Pseudomonas cepacia; [3]
  No of inoculations to failure (Bacteria): 20
Pseudomonas cepacia; [4]
  No of inoculations to failure (Bacteria): 2
